How the values were obtained:
[1] = representative summary for suitable beneficial agents; cited from earlier work
[2] = Pig model, zotarolimus concentrations in tissues after ZoMaxx stents; format: in vivo; conditions: eluted from ZoMaxx stents, FIG. 25
[3] = Octanol/water partition coefficient, shake-flask method; format: physicochemical; conditions: for transfer coefficient (P divided by S), order: FIG. 21, S = equilibrium aqueous solubility (μg/ml); for lipophilicity (partition coefficient octanol/water): n-octanol/buffered water
Method: “Solubility” is based on a standard measure used in medicinal chemistry. The octanol-water partition coefficient (P) is the ratio of distribution of a compound in a mixture of 1-octanol and H2O. LogP is the base 10 logarithm of the partition coefficient.
In the measurement of the partition coefficient (octanol/water), preliminary studies were conducted to determine the optimum drug concentration for each test, and the appropriate time for establishing the partition equilibrium. All experiments were carried out by two different analysts and on multiple drug lots.
A transfer coefficient, τ, can be defined as P divided by S, where P equals the partition coefficient and S equals theequilibrium aqueous solubility, (μg/ml) as shown in FIG. 21. […] Where S equals the equilibrium aqueous solubility of the amorphous form of the drug were possible.

[4] = Pharmacokinetics after single intravenous dose in cynomolgus monkey; conditions: single 2.5 mg/kg intravenous dose
[5] = Six-hour elution from PC1036-coated coupons in pH 7.4 phosphate buffered saline; format: physicochemical; conditions: for amount released from the coupon: after six hours, PBS pH 7.4, 37° C.; for amount remaining on the coupon: six-hour elution
Method: Prior to any experimentation, coated stainless steel coupons were prepared. These coupons were 316L electropolished stainless steel discs (10 mm diameter). This size was chosen because the surface area of one side of the coupon is similar to the surface area of a 15-mm open cell BiodivYsio stent. […]. The cleaning was a two-step process in which the coupons are sonicated for 3 minutes in dichloromethylene and 3 minutes in ethanol. The coupons were allowed to dry at room temperature. One side of the coupon was coated using a filtered 20-mg/mL solution of phosphoryl choline polymer PC1036 (product of Biocompatibles Ltd., Famham, Surrey, UK) in ethanol. Twenty μL PC solution was placed onto the coupon using a gas tight glass syringe, ensuring that the entire surface was coated but not spilling over the sides of the coupon. The coupons were initially air dried and then cured at 70° C. for 16 hours. They were then sent for gamma irradiation at <25 KGy. The resulting PC coating thickness was close to that of the stent and thick enough to accommodate the desired loaded drug dose, as graphically represented in FIG. 9A-B. FIG. 9A-B is a top and side view of a coated stainless steel coupon 30, having a PC-coating 20 on a electropolished stainless steel disc.
In these experiments, beneficial agents were loaded onto coupons and elution profiles examined. In general, the procedure is as follows. Twelve PC-coated coupons were loaded with each drug. The solutions of the drugs were usually 5.0 mg/mL in 100% ethanol and were filtered with a 0.45 μm filter prior to use.
The coupons were weighed before loading with the drug solution. To load 100 μg of drug, 20 μL of solution was placed (e.g., pipetted) on the center of the PC coated side of the coupon. The coupon was placed in a vial for 30 minutes with the lid closed to allow the drug to penetrate the coating. The lid was removed and the coupon was allowed to dry for an additional 90 minutes. To ensure that the coupon was completely dry, the coupon was weighed, and after 15 minutes the coupon was weighed a third time. When two weightings of the coupon were the same, the coupon was considered dry. The loaded, dry coupons were stored in a refrigerator protected from light.
Six coated coupons of each drug were used for the elution experiments. The coupons were individually placed, coating side up, in small metal cups to hold the coupon and to allow movement to a new vial at each time point. The coupons were usually placed in a vial containing 10 mL of pH 7.4 phosphate buffered saline. The vials were stored in an orbital shaker, with horizontal shaking of 100 rpm, at 37° C. for at least 30 minutes before insertion of a coupon to allow the solution to equilibrate at the desired temperature. After the desired time had lapsed, the coupon holder was lifted and allowed to drain. It was then placed into a pre-warmed vial corresponding to the next time point. This procedure continued until the predetermined time had elapsed. At that point, the coupons went through a drug extraction step as outlined earlier. The amount of drug in the elution samples was determined by HPLC.

[6] = Aqueous solubility, shake-flask method; conditions: amorphous DES drugs; dexamethasone crystalline
[7] = Stability of drug on PC-coated stents after ETO sterilization (HPLC); format: physicochemical
Method: In these experiments, beneficial agents were loaded onto stents and the stability of the two drugs was examined. In general, the procedure was as follows. Multiple PC-coated stents were loaded with each drug combination from solution. The solutions of the drugs were usually in the range of 2-20 mg/mL of zotarolimus and 10.0 mg/mL dexamethasone in 100% ethanol, with ˜10% PC1036 added to the solution to enhance film formation.
The stents were weighed before loading with the drug solution. To load approximately […] of each drug, a solution with equal amounts of zotarolimus and dexamethasone was sprayed onto the stent in a controlled fashion. The stent was allowed to dry before the stents were re-weighed to determine total drug load. The loaded, dry stents were stored in a refrigerator and were protected from light.
After drug loading, stents were crimped onto catheter balloons and packaged into medical product Tyvek pouches for ETO (ethylene oxide) sterilization. The ETO sterilization process is standard in the medical device industry to ensure product safety. […]
For each drug, multiple stents were used to evaluate the purity and stability of the drug loaded by the above procedure. […] The concentration and the presence of degradant-related impurities of the drug in the extraction solution were analyzed by HPLC.

[8] = alone, in the absence of zotarolimus

Molecule: 3 S,6R,7E,9R,10R,12R,14S,15E,17E,19E,21S, 23S,26R,27R,34aS)-9,10,12,13,14,21,22,23,24,25,26,27,32,33,34,34a-Hexadecahydro-9,27-dihydroxy-3-[(1R)-2-[(1S,3R,4R)-3-methoxy-4-tetrazol-1-yl)cyclohexyl]-1-methylethyl]-10,21-dimethoxy-6,8,12,14,20,26-hexamethyl-23,27-epoxy-3H-pyrido[2,1-c][1,4]oxaazacyclohentriacontine-1,5,11,28,29(4H,6H,31H)-pentone [Zotarolimus]
- LogP Values [1]: >4.5
- concentration in arterial tissue adjacent to the stent placement ([2]; all periods out to 28 days): substantial concentrations
- concentration in distal, unstented and subjacent myocardium and unstented and distal coronary arteries ([2]; throughout 28 days): therapeutically significant concentrations
- transfer coefficient (P divided by S), order [3]: zotarolimus>>paclitaxel>>rapamycin>dexamethasone
- lipophilicity (partition coefficient octanol/water) ([3]; shake-flask, FIG. 20): most lipophilic of all DES drugs tested
- lipophilicity relative to rapamycin ([3]; shake-flask, FIG. 20): more than two times as lipophilic as rapamycin

Molecule: 40-epi-N-[2′-pyridone]-rapamycin [Example 2-pyridone]
- t1/2 ([4]; terminal elimination half-life): 2.8 h

Molecule: CO[C@H]1C[C@@H]2CC[C@@H](C)[C@@](O)(O2)C(=O)C(=O)N2CCCC[C@H]2C(=O)O[C@H]([C@H](C)C[C@@H]2CC[C@H](n3ncnn3)[C@H](OC)C2)CC(=O)[C@H](C)/C=C(\C)[C@@H](O)[C@@H](OC)C(=O)[C@H](C)C[C@H](C)/C=C/C=C/C=C/1C (single isomer, unassigned; less polar) [Example 1, 42-Epi-(tetrazolyl)-rapamycin (less polar isomer)]
- terminal elimination half-life (t1/2) compared to rapamycin [4]: substantially shorter

Molecule: CCCCN(CCCC)C(=O)CN1C[C@H](c2ccc3c(c2)OCO3)[C@@H](C(=O)O)[C@@H]1c1ccc(OC)cc1 [ABT-627, atrasentan]
- amount released from the coupon [5, 8]: 50%
- amount released from the coupon ([5]; in the presence of zotarolimus): less than 10%

Molecule: C[C@@H]1C[C@H]2[C@@H]3CCC4=CC(=O)C=C[C@]4(C)[C@@]3(F)[C@@H](O)C[C@]2(C)[C@@]1(O)C(=O)CO [Dexamethasone]
- Aqueous solubility, increasing order [6]: paclitaxel, zotarolimus, rapamycin, and dexamethasone (crystalline)
- LogP Values [1]: ~1.9–2.2
- degradation in the ETO sterilization environment ([7]; dexamethasone-only coating): degraded
- degradation in the ETO sterilization environment ([7]; loaded in combination with zotarolimus, 1-to-1 ratio): did not degrade
- amount remaining on the coupon ([5]; coupon containing dexamethasone and zotarolimus): ~70%
- amount remaining on the coupon ([5]; no zotarolimus present): 25%

Molecule: OCCN(CCO)c1nc(N2CCCCC2)c2nc(N(CCO)CCO)nc(N3CCCCC3)c2n1 [Dipyridamole]
- amount released from the coupon [5, 8]: ~90%
- amount released from the coupon ([5]; in the presence of zotarolimus): about 52%

Molecule: CC(=O)O[C@H]1C(=O)[C@@]2(C)[C@H]([C@H](OC(=O)c3ccccc3)[C@]3(O)C[C@H](OC(=O)[C@H](O)[C@@H](NC(=O)c4ccccc4)c4ccccc4)C(C)=C1C3(C)C)[C@]1(OC(C)=O)CO[C@@H]1C[C@@H]2O [Paclitaxel]
- Aqueous solubility, increasing order [6]: paclitaxel, zotarolimus, rapamycin, and dexamethasone (crystalline)
- transfer coefficient (P divided by S), order [3]: zotarolimus>>paclitaxel>>rapamycin>dexamethasone

Molecule: CO[C@H]1C[C@@H]2CC[C@@H](C)[C@@](O)(O2)C(=O)C(=O)N2CCCC[C@H]2C(=O)O[C@H]([C@H](C)C[C@@H]2CC[C@@H](O)[C@H](OC)C2)CC(=O)[C@H](C)/C=C(\C)[C@@H](O)[C@@H](OC)C(=O)[C@H](C)C[C@H](C)/C=C/C=C/C=C/1C [Rapamycin]
- Aqueous solubility, increasing order [6]: paclitaxel, zotarolimus, rapamycin, and dexamethasone (crystalline)
- LogP Values [1]: >4.5
- transfer coefficient (P divided by S), order [3]: zotarolimus>>paclitaxel>>rapamycin>dexamethasone
- lipophilicity (partition coefficient octanol/water) ([3]; shake-flask, FIG. 20): most lipophilic compounds in the group tested

— patent US8257725B2, “Delivery of highly lipophilic agents via medical devices” (Abbott Laboratories, priority 1997, dated 2012)
